{
  "source": "paper PMC4521081",
  "about": "“Thiophenecarboxamide Derivatives Activated by EthA Kill Mycobacterium tuberculosis by Inhibiting the CTP Synthetase PyrG” (Chemistry & Biology, 2015)",
  "key": {"wild-type PyrG": {"molecular_target": "wild-type PyrG (Mycobacterium tuberculosis, UniProt P9WHK7)", "sequence (P9WHK7 whole entry)": "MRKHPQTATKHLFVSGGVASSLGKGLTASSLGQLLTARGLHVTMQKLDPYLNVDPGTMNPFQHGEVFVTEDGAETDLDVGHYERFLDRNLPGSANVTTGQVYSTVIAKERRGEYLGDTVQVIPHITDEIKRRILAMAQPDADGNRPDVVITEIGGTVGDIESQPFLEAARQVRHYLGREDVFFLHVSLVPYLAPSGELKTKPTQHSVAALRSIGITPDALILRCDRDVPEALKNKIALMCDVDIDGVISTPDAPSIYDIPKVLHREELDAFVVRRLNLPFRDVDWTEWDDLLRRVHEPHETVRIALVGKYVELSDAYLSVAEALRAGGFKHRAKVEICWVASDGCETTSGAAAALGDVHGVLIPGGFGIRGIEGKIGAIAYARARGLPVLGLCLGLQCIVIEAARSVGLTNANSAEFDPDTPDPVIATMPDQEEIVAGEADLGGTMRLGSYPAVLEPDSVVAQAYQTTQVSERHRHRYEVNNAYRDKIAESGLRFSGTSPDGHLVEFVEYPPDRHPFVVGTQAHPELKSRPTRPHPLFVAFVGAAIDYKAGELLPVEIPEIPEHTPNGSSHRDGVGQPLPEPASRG", "assay_type": "biochemical, M. tuberculosis", "design": "% inhibition of wild-type PyrG: dose or concentration left out as unconfirmed"}, "M. tuberculosis H37Rv [1]": {"system": "M. tuberculosis H37Rv", "assay": "microbe, parasite or virus in culture", "assay_type": "cell-based"}, "EthA [2]": {"molecular_target": "T1, EthA (Mycobacterium tuberculosis, UniProt P9WNF9)", "T1 sequence (P9WNF9 whole entry)": "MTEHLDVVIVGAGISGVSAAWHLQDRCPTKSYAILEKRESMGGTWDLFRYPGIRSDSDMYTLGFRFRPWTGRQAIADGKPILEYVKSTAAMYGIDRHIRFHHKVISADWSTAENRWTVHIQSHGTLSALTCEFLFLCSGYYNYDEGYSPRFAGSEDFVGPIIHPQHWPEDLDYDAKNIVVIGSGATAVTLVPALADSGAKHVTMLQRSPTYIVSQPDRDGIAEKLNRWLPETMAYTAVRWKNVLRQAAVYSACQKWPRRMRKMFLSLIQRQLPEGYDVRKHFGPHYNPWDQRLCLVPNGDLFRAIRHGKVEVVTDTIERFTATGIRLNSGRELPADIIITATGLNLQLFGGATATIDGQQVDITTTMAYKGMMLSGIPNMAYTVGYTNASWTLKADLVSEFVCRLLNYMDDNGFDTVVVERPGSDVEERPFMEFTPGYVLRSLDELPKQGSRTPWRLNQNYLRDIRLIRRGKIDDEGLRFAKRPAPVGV", "conditions": "cited from earlier work; for Km: read-out: Km (EthA substrate)"}, "[3]": {"system": "non-replicating M. tuberculosis ss18b", "assay": "microbe, parasite or virus in culture", "assay_type": "cell-based", "conditions": "Mycobacterium tuberculosis"}, "[4]": {"system": "intracellular M. tuberculosis H37Rv", "assay": "microbe, parasite or virus in culture", "assay_type": "cell-based", "conditions": "Mycobacterium tuberculosis; for IC50: read-out: Intracellular IC50; for IC90: read-out: Intracellular IC90"}, "EthA [5]": {"molecular_target": "T1, EthA", "assay_type": "biochemical, M. tuberculosis"}, "PyrG": {"molecular_target": "PyrG (Mycobacterium tuberculosis, UniProt P9WHK7)", "sequence (P9WHK7 whole entry)": "as the sequence (P9WHK7 whole entry) above", "assay_type": "biochemical, M. tuberculosis"}, "HepG2": {"system": "HepG2", "conditions": "HepG2, at concentrations below 40 μg/ml"}, "A549": {"system": "A549", "conditions": "A549, at concentrations below 40 μg/ml"}, "RAW 264.7": {"system": "RAW 264.7", "conditions": "at concentrations below 40 μg/ml"}, "Huh7": {"system": "Huh7", "conditions": "Huh7, at concentrations below 40 μg/ml"}, "M. tuberculosis H37Rv [6]": {"system": "M. tuberculosis H37Rv", "assay_type": "cell-based, Mycobacterium tuberculosis"}, "M. tuberculosis H37Ra": {"system": "M. tuberculosis H37Ra", "assay": "MIC against M. tuberculosis H37Ra", "assay_type": "cell-based, Mycobacterium tuberculosis"}, "[7]": {"conditions": "Mycobacterium tuberculosis, H37RV, Figure 5, H37Rv, read-out: MIC"}, "[8]": {"conditions": "Mycobacterium tuberculosis, H37RV, Table 1, replicating, read-out: H37Rv MIC"}, "[9]": {"conditions": "Mycobacterium tuberculosis, H37RV, Table 2, strain H37Rv, read-out: MIC"}, "[10]": {"conditions": "Mycobacterium tuberculosis, H37RV, Table S2, H37Rv, read-out: MIC"}, "[11]": {"conditions": "Mycobacterium tuberculosis, H37RV, Table S4, H37Rv, read-out: MIC"}},
  "note": "“Also recorded” adds a separate entry of the source. Like-named read-outs stand apart in the source and are kept apart here.",
  "data": [
    {"smiles": "O=C(CCc1ccccc1)NC(=O)Nc1ccc(N2CCCCC2)cc1", "note": "[3-phenyl-N-[(4-piperidin-1-ylphenyl)carbamoyl]propanamide]", "values": [
      {"measurement": "effect on PyrG enzymatic activity", "setting": "wild-type PyrG", "value": "no effect"}
    ]},
    {"smiles": "CCc1cc(C(N)=S)ccn1", "note": "[ETH, ethionamide, reference compound]", "values": [
      {"measurement": "MIC", "setting": "M. tuberculosis H37Rv [1]; Mycobacterium tuberculosis, H37RV", "value": 1, "unit": "µg/mL"},
      {"measurement": "Km", "setting": "EthA [2]", "value": 340, "unit": "µM"}
    ]},
    {"smiles": "Cc1ccc(C(=O)Nc2ccc([N+](=O)[O-])cc2)[s+]1[O-]", "note": "(centres unmarked) [M2]", "values": [
      {"measurement": "effect on PyrG enzymatic activity", "setting": "wild-type PyrG", "value": "inhibit"}
    ]},
    {"smiles": "O=C(CCc1ccccc1)NC(=S)Nc1ccc(N2CCCCC2)cc1", "note": "[compound 7904688, 3-phenyl-N-[(4-piperidin-1-ylphenyl)carbamothioyl]propanamide]", "values": [
      {"measurement": "MIC", "setting": "M. tuberculosis H37Rv [1]; [7]", "value": 0.5, "unit": "µg/mL"},
      {"measurement": "MIC", "setting": "M. tuberculosis H37Rv [1]; [8]", "value": 0.5, "unit": "µg/mL"},
      {"measurement": "MIC", "setting": "M. tuberculosis H37Rv [1]; [9]", "value": 0.5, "unit": "µg/mL"},
      {"measurement": "IC50", "setting": "[3]", "value": 2.5, "unit": "µg/mL"},
      {"measurement": "IC90", "setting": "[3]", "value": 20, "unit": "µg/mL"},
      {"measurement": "IC50", "setting": "[4]", "value": 0.175, "unit": "µg/mL"},
      {"measurement": "IC90", "setting": "[4]", "value": 0.625, "unit": "µg/mL"},
      {"measurement": "higher affinity for EthA than ETH", "setting": "EthA [5]", "value": "~10", "unit": "fold"},
      {"measurement": "effect on wild-type PyrG", "setting": "wild-type PyrG", "value": "ineffective"},
      {"measurement": "loss of PyrG activity", "setting": "PyrG", "value": "about 80%"},
      {"measurement": "cytotoxicity", "setting": "HepG2", "value": "not cytotoxic"},
      {"measurement": "cytotoxicity", "setting": "A549", "value": "not cytotoxic"},
      {"measurement": "cytotoxicity", "setting": "RAW 264.7", "value": "not cytotoxic"},
      {"measurement": "cytotoxicity", "setting": "Huh7", "value": "not cytotoxic"}
    ]},
    {"smiles": "Cc1ccc(C(=O)Nc2ccc([N+](=O)[O-])cc2)s1", "note": "[compound 7947882, 5-methyl-N-(4-nitrophenyl)thiophene-2-carboxamide]", "values": [
      {"measurement": "MIC", "setting": "M. tuberculosis H37Rv [1]; [7]", "value": 0.5, "unit": "µg/mL"},
      {"measurement": "MIC", "setting": "M. tuberculosis H37Rv [1]; [8]", "value": 0.5, "unit": "µg/mL"},
      {"measurement": "MIC", "setting": "M. tuberculosis H37Rv [1]; [9]", "value": 0.5, "unit": "µg/mL"},
      {"measurement": "MIC", "setting": "M. tuberculosis H37Rv [1]; [10]", "value": 0.5, "unit": "µg/mL"},
      {"measurement": "MIC", "setting": "M. tuberculosis H37Rv [1]; [11]", "value": 0.5, "unit": "µg/mL"},
      {"measurement": "IC50", "setting": "[3]", "value": 2.5, "unit": "µg/mL"},
      {"measurement": "IC90", "setting": "[3]", "value": 10, "unit": "µg/mL"},
      {"measurement": "IC50", "setting": "[4]", "value": 0.625, "unit": "µg/mL"},
      {"measurement": "IC90", "setting": "[4]", "value": 1.25, "unit": "µg/mL"},
      {"measurement": "higher affinity for EthA than ETH", "setting": "EthA [5]", "value": "~10", "unit": "fold"},
      {"measurement": "effect on wild-type PyrG", "setting": "wild-type PyrG", "value": "ineffective"},
      {"measurement": "time in which PyrG lost full activity", "setting": "PyrG", "value": "≤ 4", "unit": "h"},
      {"measurement": "abundance of nucleotide intermediates", "setting": "M. tuberculosis H37Rv [6]", "value": "substantial increase"},
      {"measurement": "melting point", "value": "178 to 180", "unit": "°C"},
      {"measurement": "cytotoxicity", "setting": "HepG2", "value": "not cytotoxic"},
      {"measurement": "cytotoxicity", "setting": "A549", "value": "not cytotoxic"},
      {"measurement": "cytotoxicity", "setting": "RAW 264.7", "value": "not cytotoxic"},
      {"measurement": "cytotoxicity", "setting": "Huh7", "value": "not cytotoxic"}
    ]},
    {"smiles": "Cc1ccc(C(=O)O)s1", "note": "[compound 11326028, 5-methylthiophene-2-carboxylic acid]", "values": [
      {"measurement": "MIC", "setting": "M. tuberculosis H37Rv [1]; Figure 5, H37Rv", "value": 0.128, "unit": "µg/mL"},
      {"measurement": "MIC", "setting": "M. tuberculosis H37Rv [1]; [7]", "value": 0.125, "unit": "µg/mL"},
      {"measurement": "MIC", "setting": "M. tuberculosis H37Rv [1]; [11]", "value": 0.128, "unit": "µg/mL"}
    ]},
    {"smiles": "COc1ccc(NC(=O)c2cc([N+](=O)[O-])c(C)s2)cc1OC", "note": "[compound 11326054]", "values": [
      {"measurement": "MIC", "setting": "M. tuberculosis H37Rv [1]; [7]", "value": 0.25, "unit": "µg/mL"},
      {"measurement": "MIC", "setting": "M. tuberculosis H37Rv [1]; [11]", "value": 0.25, "unit": "µg/mL"},
      {"measurement": "kcat (compound as EthA substrate)", "setting": "EthA [5]", "value": "0.98 ± 0.03", "unit": "min⁻¹"},
      {"measurement": "melting point", "value": "200 to 202", "unit": "°C"}
    ]},
    {"smiles": "CC1=CC=C(C(=O)Nc2ccc([N+](=O)[O-])cc2)S1(=O)=O", "note": "[compound 11426026]", "values": [
      {"measurement": "MIC", "setting": "M. tuberculosis H37Rv [1]; [10]", "value": 1, "unit": "µg/mL"},
      {"measurement": "MIC", "setting": "M. tuberculosis H37Rv [1]; Mycobacterium tuberculosis, H37RV, Table S5, read-out: H37Rv MIC", "value": 1, "unit": "µg/mL"},
      {"measurement": "% inhibition of wild-type PyrG", "setting": "wild-type PyrG", "value": "83.6 ± 3.8", "unit": "%"},
      {"measurement": "effect on PyrG enzymatic activity", "setting": "wild-type PyrG", "value": "inhibit; also recorded: higher degree of inhibition"},
      {"measurement": "MIC", "setting": "M. tuberculosis H37Ra", "value": 4, "unit": "µg/mL"}
    ]},
    {"smiles": "CC(=O)Cc1ccccc1", "note": "[phenylacetone]", "values": [
      {"measurement": "Km", "setting": "EthA [2]; comparison values, ref Fraaije et al., 2004", "value": 60, "unit": "µM"},
      {"measurement": "kcat (EthA substrate)", "setting": "EthA [2]; ref Fraaije et al., 2004", "value": 0.027, "unit": "s⁻¹"}
    ]}
  ]
}
